# Laboratory results published in patent US8551999B2, “Heterocyclic compound and pharmaceutical composition thereof” (Otsuka Pharmaceutical Co., Ltd., priority 2007, dated 2013).
row,Structure (SMILES),melting point
1,"Br.Cn1c(C(=O)N2CCN(Cc3ccc4c(c3)OCO4)CC2)cc2cc(Oc3ccc(NC(=O)c4ccc(Cl)c(Cl)c4)cn3)ccc21 [Example 7, N-{6-[2-(4-Benzo[1,3]dioxol-5-ylmethylpiperazine-1-carbonyl)-1-methyl-1H-indol-5-yloxy]pyridin-3-yl}-3,4-dichlorobenzamide hydrobromide]",264 to 269 °C
2,"COc1ccc(CN2CCN(C(=O)c3cc4cc(Oc5ccc(N(C)C(=O)c6ccc(C(F)(F)F)cc6Cl)cn5)ccc4n3C)CC2)cc1.O=C(O)C(=O)O [Example 16, 2-Chloro-N-(6-{2-[4-(4-methoxybenzyl)piperazine-1-carbonyl]-1-methyl-1H-indol-5-yloxy}pyridin-3-yl)-N-methyl-4-trifluoromethyl-benzamide oxalate]",163 to 165 °C
3,"CCOc1ccc(CN2CCN(C(=O)c3cc4cc(Oc5ncc(NC(=O)c6ccc(Cl)c(Cl)c6)cn5)ccc4n3C)CC2)cc1 [Example 384, 3,4-Dichloro-N-(2-{2-[4-(4-ethoxybenzyl)piperazine-1-carbonyl]-1-methyl-1H-indol-5-yloxy}pyrimidin-5-yl)benzamide]",156 to 157 °C
4,"Br.CN(C(=O)c1ccc(Cl)c(Cl)c1)c1ccc(Oc2ccc3cc(C(=O)N4CCN(Cc5ccc(OCC(F)F)cc5)CC4)n(C)c3c2)nc1 [Example 483, 3,4-Dichloro-N-[6-(2-{4-[4-(2,2-difluoroethoxy)benzyl]piperazine-1-carbonyl}-1-methyl-1H-indol-6-yloxy)pyridin-3-yl]-N-methyl-benzamide hydrobromide]",182.4 to 184.6 °C
5,"CC(C)Oc1ccc(CN2CCN(C(=O)c3cc4cc(Oc5ccc(N(C)C(=O)c6ccc(C(F)(F)F)cc6)cn5)ccc4n3C)CC2)cc1.O=C(O)/C=C\C(=O)O [Example 410, N-(6-{2-[4-(4-Isopropoxybenzyl)piperazine-1-carbonyl]-1-methyl-1H-indol-5-yloxy}pyridin-3-yl)-N-methyl-4-trifluoromethyl-benzamide maleate]",140 to 142 °C
6,"CC(C)CCOc1ccc(CN2CCN(C(=O)c3cc4ccc(Oc5ccc(N(C)S(=O)(=O)c6ccc(Cl)c(Cl)c6)cn5)cc4n3C)CC2)cc1 [Example 516, 3,4-Dichloro-N-methyl-N-[6-(1-methyl-2-{4-[4-(3-methylbutoxy)-benzyl]piperazine-1-carbonyl}-1H-indol-6-yloxy)pyridin-3-yl]-benzenesulfonamide]",145.9 to 147.1 °C
7,"Cc1c(Oc2ccc(N(C)C(=O)c3ccc(C(F)(F)F)cc3)cn2)ccc2c1cc(C(=O)N1CCN(Cc3ccc4c(c3)OC(F)(F)O4)CC1)n2C [Example 441, N-(6-{2-[4-(2,2-Difluorobenzo[1,3]dioxol-5-ylmethyl)piperazine-1-carbonyl]-1,4-dimethyl-1H-indol-5-yloxy}pyridin-3-yl)-N-methyl-4-trifluoromethylbenzamide]",97.9 to 99.5 °C
8,"Br.Cc1ccc(S(=O)(=O)N(C)c2ccc(Oc3ccc4cc(C(=O)N5CCN(Cc6ccc(OC(F)F)cc6)CC5)n(C)c4c3)nc2)cc1 [Example 532, N-(6-{2-[4-(4-Difluoromethoxybenzyl)piperazine-1-carbonyl]-1-methyl-1H-indol-6-yloxy}pyridin-3-yl)-4,N-dimethylbenzene-sulfonamide hydrobromide]",214.5 to 218.5 °C (dec.)
9,"Br.Cn1c(C(=O)N2CCN(Cc3ccc4c(c3)OCO4)CC2)cc2cc(Oc3ccc(NC(=O)c4ccc(C(F)(F)F)cc4F)cn3)ccc21 [Example 316, N-{6-[2-(4-Benzo[1,3]dioxol-5-ylmethylpiperazine-1-carbonyl)-1-methyl-1H-indol-5-yloxy]pyridin-3-yl}-2-fluoro-4-trifluoromethyl-benzamide hydrobromide]",254 to 257 °C (dec.)
10,"Br.CN(C(=O)c1ccc(C(F)(F)F)cc1)c1ccc(Oc2ccc3cc(C(=O)N4CCN(Cc5ccc6c(c5)OC(F)(F)O6)CC4)n(C)c3c2)nc1 [Example 440, N-(6-{2-[4-(2,2-Difluorobenzo[1,3]dioxol-5-ylmethyl)piperazine-1-carbonyl]-1-methyl-1H-indol-6-yloxy}pyridin-3-yl)-N-methyl-4-tri-fluoromethylbenzamide hydrobromide]",243.3 to 245.1 °C
11,"C[C@H]1CN(Cc2ccccn2)CCN1C(=O)c1cc2cc(Oc3ccc(NC(=O)c4ccc(C(F)(F)F)cc4)cn3)ccc2n1C.O=C(O)C(=O)O.O=C(O)C(=O)O [Example 397, N-{6-[1-Methyl-2-((S)-2-methyl-4-pyridin-2-ylmethylpiperazine-1-carbonyl)-1H-indol-5-yloxy]pyridin-3-yl}-4-trifluoromethyl-benzamide dioxalate]",126 to 127 °C
12,"COc1ccc(CN2CCN(C(=O)c3cc4cc(Oc5ccc(NC(=O)c6ccc(C(F)(F)F)cc6)cn5)ccc4n3C)CC2)cn1.O=C(O)/C=C\C(=O)O [Example 348, N-(6-{2-[4-(6-Methoxypyridin-3-ylmethyl)piperazine-1-carbonyl]-1-methyl-1H-indol-5-yloxy}pyridin-3-yl)-4-trifluoromethylbenzamide maleate]",135 to 138 °C
13,"Br.CCCOc1ccc(CN2CCN(C(=O)c3cc4ccc(Oc5ccc(N(C)C(=O)c6ccc(C(F)(F)F)cc6Cl)cn5)cc4n3C)CC2)cc1 [Example 450, 2-Chloro-N-methyl-N-(6-{1-methyl-2-[4-(4-propoxybenzyl)-piperazine-1-carbonyl]-1H-indol-6-yloxy}pyridin-3-yl)-4-tri-fluoromethylbenzamide hydrobromide]",238.6 to 240.1 °C
14,CCN(C(=S)Nc1ccc(Cl)c(Cl)c1)c1ccc(Oc2ccc3c(c2)cc(C(=O)N2CCN(Cc4ccc5c(c4)OCO5)CC2)n3C)nc1.Cl,152 to 160 °C

# More lines, now with the values ahead:
row,melting point,Structure (SMILES)
1,233 to 235 °C,"Br.COc1ccc(CN2CCN(C(=O)c3cc4cc(Oc5ccc(NC(=O)c6ccc(C(F)(F)F)cc6)cn5)ccc4n3C)CC2)cc1OC [Example 350, N-(6-{2-[4-(3,4-Dimethoxybenzyl)piperazine-1-carbonyl]-1-methyl-1H-indol-5-yloxy}pyridin-3-yl)-4-trifluoromethylbenzamide hydrobromide]"
2,265 to 267 °C (dec.),"Br.CC(C)Oc1ccc(CN2CCN(C(=O)c3cc4ccc(Oc5ccc(NC(=O)c6ccc(OC(F)(F)F)cc6)cn5)cc4n3C)CC2)cc1 [Example 251, N-(6-{2-[4-(4-Isopropoxybenzyl)piperazine-1-carbonyl]-1-methyl-1H-indol-6-yloxy}pyridin-3-yl)-4-trifluoromethoxybenzamide hydrobromide]"
3,241 to 243 °C,"Br.CCOc1ccc(CN2CCN(C(=O)c3cc4ccc(Oc5ccc(N(C)C(=O)c6ccc(C(F)(F)F)cc6)cn5)cc4n3C)CC2)cc1 [Example 419, N-(6-{2-[4-(4-Ethoxybenzyl)piperazine-1-carbonyl]-1-methyl-1H-indol-6-yloxy}pyridin-3-yl)-N-methyl-4-trifluoromethylbenzamide hydrobromide]"
4,234.7 to 235.1 °C,"Br.CCCOc1ccc(CN2CCN(C(=O)c3cc4cc(Oc5ccc(NC(=O)c6ccc(C(F)(F)F)cc6)cn5)ccc4n3C)CC2)cc1 [Example 481, N-(6-{1-Methyl-2-[4-(4-propoxybenzyl)piperazine-1-carbonyl]-1H-indol-5-yloxy}pyridin-3-yl)-4-trifluoromethylbenzamide hydrobromide]"
5,254 to 255.7 °C,"Br.CCCOc1ccc(CN2CCN(C(=O)c3cc4ccc(Oc5ccc(NC(=O)c6ccc(C(F)(F)F)cc6)cn5)cc4n3C)CC2)cc1 [Example 475, N-(6-{1-Methyl-2-[4-(4-propoxybenzyl)piperazine-1-carbonyl]-1H-indol-6-yloxy}pyridin-3-yl)-4-trifluoromethylbenzamide hydrobromide]"
6,229 to 230 °C,"Br.CN(C(=O)c1ccc(C(F)(F)F)cc1)c1ccc(Oc2ccc3cc(C(=O)N4CCN(Cc5ccc(OC(F)F)cc5)CC4)n(C)c3c2)nc1 [Example 422, N-(6-{2-[4-(4-Difluoromethoxybenzyl)piperazine-1-carbonyl]-1-methyl-1H-indol-6-yloxy}pyridin-3-yl)-N-methyl-4-trifluoromethyl-benzamide hydrobromide]"
7,265.6 to 268.3 °C,"Br.Cn1c(C(=O)N2CCN(Cc3ccc(OC(F)F)cc3)CC2)cc2ccc(Oc3ccc(NC(=O)c4ccc(C(F)(F)F)cc4)cn3)cc21 [Example 477, N-(6-{2-[4-(4-Difluoromethoxybenzyl)piperazine-1-carbonyl]-1-methyl-1H-indol-6-yloxy}pyridin-3-yl)-4-trifluoromethylbenzamide hydrobromide]"
8,214 to 219 °C (dec.),"Br.Cn1c(C(=O)N2CCN(Cc3ccc(OCC(F)(F)F)cc3)CC2)cc2cc(Oc3ccc(NC(=O)c4ccc(C(F)(F)F)cc4O)cn3)ccc21 [Example 267, 2-Hydroxy-N-[6-(1-methyl-2-{4-[4-(2,2,2-trifluoroethoxy)benzyl]-piperazine-1-carbonyl}-1H-indol-5-yloxy)pyridin-3-yl]-4-tri-fluoromethylbenzamide hydrobromide]"
9,251.8 to 253.5 °C,"Br.Cn1c(C(=O)N2CCN(Cc3ccc(OCC(F)(F)F)cc3)CC2)cc2ccc(Oc3ccc(NC(=O)c4ccc(Cl)c(Cl)c4)cn3)cc21 [Example 465, 3,4-Dichloro-N-[6-(1-methyl-2-{4-[4-(2,2,2-trifluoroethoxy)-benzyl]piperazine-1-carbonyl}-1H-indol-6-yloxy)pyridin-3-yl]-benzamide hydrobromide]"
10,256.2 to 256.5 °C,Cl.Cn1c(C(=O)N2CCN(Cc3ccc(OC(F)F)cc3)CC2)cc2ccc(Oc3ccc(NC(=O)c4ccc(OC(F)(F)F)cc4)cn3)cc21
11,249.8 to 251 °C,CC(C)Oc1ccc(CN2CCN(C(=O)c3cc4ccc(Oc5ncc(NC(=O)c6ccc(C(F)(F)F)cc6)cn5)cc4n3C)CC2)cc1.Cl
12,250.8 to 254.2 °C,Cl.Cn1c(C(=O)N2CCN(Cc3ccc(OCC(F)(F)F)cc3)CC2)cc2ccc(Oc3ncc(NC(=O)c4ccc(C(F)(F)F)cc4)cn3)cc21
13,237 to 239 °C,"Br.CN(C(=O)c1ccc(C(F)(F)F)cc1)c1ccc(Oc2ccc3cc(C(=O)N4CCN(Cc5ccc(OC(F)(F)F)cc5)CC4)n(C)c3c2)nc1 [Example 446, N-Methyl-N-(6-{1-methyl-2-[4-(4-trifluoromethoxybenzyl)-piperazine-1-carbonyl]-1H-indol-6-yloxy}pyridin-3-yl)-4-tri-fluoromethylbenzamide hydrobromide]"
